One experiment deals with T1, Muscarinic acetylcholine receptor M1 (Rattus norvegicus, UniProt P08482).
T1 sequence (P08482 whole entry): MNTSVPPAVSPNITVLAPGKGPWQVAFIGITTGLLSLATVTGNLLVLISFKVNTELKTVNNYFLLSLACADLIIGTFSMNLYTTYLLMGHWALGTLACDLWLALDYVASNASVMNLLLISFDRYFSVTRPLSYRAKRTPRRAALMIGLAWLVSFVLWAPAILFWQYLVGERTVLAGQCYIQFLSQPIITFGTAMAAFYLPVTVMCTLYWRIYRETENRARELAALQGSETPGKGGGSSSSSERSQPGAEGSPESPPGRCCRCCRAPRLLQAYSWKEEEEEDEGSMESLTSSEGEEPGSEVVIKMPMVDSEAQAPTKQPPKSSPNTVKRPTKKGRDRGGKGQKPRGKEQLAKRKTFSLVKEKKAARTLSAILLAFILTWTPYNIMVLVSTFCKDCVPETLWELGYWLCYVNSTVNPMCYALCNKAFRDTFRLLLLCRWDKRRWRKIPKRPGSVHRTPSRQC
Description: structure-activity potentiation of ACh at M1 – cell-based, calcium mobilization, CHO-K1, SAR follow-up (AID 2651).
Details: not given
(In general: Calcium assays in cells follow changes in intracellular calcium, usually with a dye or a luminescent sensor.)
Broadly, the EC50 is the concentration at which the effect is half-maximal. On to `Cc1cc(NC(=O)CS(=O)(=O)c2cn(Cc3cccc(-c4cn[nH]c4)c3)c3ccccc23)no1`, for which the EC50 was found to be 2.19 µM.

For the compound `Cc1cc(NC(=O)CS(=O)(=O)c2cn(Cc3cccc(Cl)c3F)c3ccccc23)no1`, the EC50 worked out at 5.1 µM.

Consider `Cc1cc(NC(=O)CS(=O)(=O)c2cn(Cc3cccc(-c4cc[nH]n4)c3F)c3ccccc23)no1`, for which the EC50 was 4.4 µM.

As to `Cc1cc(NC(=O)CS(=O)(=O)c2cn(Cc3ccccc3Cl)c3ccccc23)no1` [2-[1-[(2-chlorophenyl)methyl]indol-3-yl]sulfonyl-N-(5-methyl-1,2-oxazol-3-yl)acetamide], the EC50 is 10 µM.

Regarding `Cc1cc(NC(=O)CS(=O)(=O)c2cn(Cc3cccc(Br)c3)c3cc(F)cc(F)c23)no1` [2-[1-[(3-bromophenyl)methyl]-4,6-bis(fluoranyl)indol-3-yl]sulfonyl-N-(5-methyl-1,2-oxazol-3-yl)ethanamide], the concentration for a half-maximal effect (EC50) worked out at 5.37 µM.

In the case of `Cc1cc(NC(=O)CS(=O)(=O)c2cn(Cc3cccc(Br)c3)c3ccccc23)no1` [2-[[1-[(3-bromophenyl)methyl]-3-indolyl]sulfonyl]-N-(5-methyl-3-isoxazolyl)acetamide], the EC50 came out at 3.79 µM.

Consider `Cc1cc(NC(=O)CS(=O)(=O)c2cn(Cc3cccc(F)c3)c3ccccc23)no1` [2-[[1-[(3-fluorophenyl)methyl]-3-indolyl]sulfonyl]-N-(5-methyl-3-isoxazolyl)acetamide], for which the EC50 was 5.22 µM.

Turning to `Cc1cc(NC(=O)CS(=O)(=O)c2cn(Cc3cc(Br)ccc3F)c3ccccc23)no1` [2-[[1-[(5-bromo-2-fluorophenyl)methyl]-3-indolyl]sulfonyl]-N-(5-methyl-3-isoxazolyl)acetamide], the EC50 was found to be 1.38 µM.

Consider `Cc1cc(NC(=O)CS(=O)(=O)c2cn(Cc3cc(-c4cc[nH]n4)ccc3F)c3ccccc23)no1` [2-[[1-[[2-fluoro-5-(1H-pyrazol-5-yl)phenyl]methyl]-3-indolyl]sulfonyl]-N-(5-methyl-3-isoxazolyl)acetamide], for which the concentration giving a half-maximal response (EC50) came to 3.07 µM.

In the case of `Cc1cc(NC(=O)CS(=O)(=O)c2cn(Cc3cccc(Cl)c3)c3ccccc23)no1` [VU0366968-1], the concentration for a half-maximal effect (EC50) was 5.82 µM.

As for `COc1cccc(Cn2cc(S(=O)(=O)CC(=O)Nc3cc(C)on3)c3ccccc32)c1` [VU0366971-1], the EC50 was 6.54 µM.

Turning to `Cc1cc(NC(=O)CS(=O)(=O)c2cn(Cc3cccc(-c4ccn(C)n4)c3)c3ccccc23)no1` [VU0402606-1], the concentration for a half-maximal effect (EC50) is 3.21 µM.

For `Cc1cc(NC(=O)CS(=O)(=O)c2cn(Cc3ccc(F)nc3)c3ccccc23)no1` [VU0404018], the EC50 is 10 µM.

`Cc1cc(NC(=O)CS(=O)(=O)c2cn(Cc3cccc(-c4cn[nH]c4)c3)c3cc(F)cc(F)c23)no1` [VU0405645-1]: the EC50 stood at 1.85 µM.

The same experiment, now with this note: inactive by the depositor's call.
Consider `Cc1cc(NC(=O)CS(=O)(=O)c2cn(Cc3cccc(-c4ccc(Cl)nc4)c3)c3ccccc23)no1`, for which the EC50 was 30 µM.

These data come from BindingDB's records for doi:10.7270/Q2QF8R9S (Vanderbilt Screening Center For Gpcrs, Ion Channels and …, 2010).
